# What was measured:
# Format in all cases: cell-based, human
# HCT 116 p53^+/+ cells = assay: MTS cytotoxicity assay, HCT 116 p53+/+; conditions: for IC50: Homo sapiens, HCT 116 p53^+/+, 72 h incubation, MTS; for Selectivity index, HCT 116 p53+/+: NHDF vs HCT 116 p53+/+
# Excerpt: (§1) M. Rusin from the Maria Sklodowska-Curie Memorial Cancer Centre and Institute of Oncology in Gliwice, Poland. […] G. Kramer-Marek from the Institute of Cancer Research in London, United Kingdom. The human suspension chronic myelogenous leukemia cell line K562 and pancreas ductal adenocarcinoma cell line PANC-1 were purchased from Sigma-Aldrich (St. Louis, MO, USA), while the normal human dermal fibroblasts cell line NHDF were purchased from PromoCell. […] Each medium contained a combination of two antibiotics: penicillin and streptomycin (1% v/v; Gibco). All of these cell lines were grown under standard conditions at 37 °C with a 5% CO2 humidified atmosphere. Moreover, all of the cell lines were routinely tested for mycoplasma using the PCR technique with specific Mycoplasma primers to confirm that there was no contamination.
# (§2) The assay was performed following a 72 h incubation with the various concentrations of the tested compounds. Then, 100 µL DMEM without phenol red with 20 µL of the CellTiter 96®AQueous One Solution-MTS (Promega, Promega, WI, USA) was added to each well and incubated for 1 h or 3 h (PANC-1) at 37 °C. The optical densities of the samples were measured at 490 nm using a multi-plate reader (Synergy 4, BioTek, Winooski, VT, USA). […] Each individual compound was tested in triplicate in a single experiment with each experiment being performed three or four times.
# A549 cells = assay: MTS cytotoxicity assay, A549; conditions: for IC50: Homo sapiens, A549, 72 h, A549, 72 h incubation, MTS; for Selectivity index, A549: NHDF vs A549
# Excerpt: as §1, §2
# U-251 cells = assay: MTS cytotoxicity assay, U-251; conditions: for IC50: Homo sapiens, U-251, 72 h incubation, MTS; for Selectivity index, U-251: NHDF vs U-251
# Excerpt: as §1, §2
# PANC-1 cells = assay: MTS cytotoxicity assay, PANC-1; conditions: for IC50: Homo sapiens, PANC-1, 72 h incubation, MTS; for Selectivity index, PANC-1: NHDF vs PANC-1
# Excerpt: as §1, §2
# K562 cells [1] = assay: Annexin V binding (apoptosis) assay, K562; conditions: K562, 5 µM, 48 h; 5.56% in the control cells
# Experimental: The K562, U-251 and NHDF cells were seeded in 3 cm Petri dishes (Nunc) at a density of 250,000 cells per well and incubated at 37 °C for 24 h. Then, the medium was removed, and freshly prepared solutions of the tested compounds, BS1 and BS4 (two to three times the IC50 value), were added. After a 48 h incubation, the assays were performed using a FITC Annexin V Apoptosis Detection KIT with 7-AAD (Bio-Legend) according to the manufacturer’s instructions. Briefly, the cells were collected, washed twice with cold PBS and centrifuged at 300 g for 5 min. Next, the cells were resuspended in a 100 µL Annexin V Binding Buffer and incubated for 15 min at room temperature in the dark with 5 µL of FITC Annexin V and 5 µL 7-AAD Viability Staining Solution. After immunostaining, the number of events for live, early and late apoptotic cells were determined using a Muse Cell Analyzer. The experiments were performed at least four times.
# K562 cells [2] = assay: Immunoblotting with densitometry, K562; conditions: 24 h; for PARP/Reference 89 kDa, densitometric intensity ratio / caspase-9/Reference 37-35 kDa, densitometric intensity ratio: control 0.167; for AIF/Reference 67 kDa, densitometric intensity ratio / BID/Reference 22 kDa, densitometric intensity ratio / PARP/Reference 116 kDa, densitometric intensity ratio / caspase-9/Reference 47 kDa, densitometric intensity ratio / cdc2/Reference 34 kDa, densitometric intensity ratio / cyclin E1/Reference 48 kDa, densitometric intensity ratio: control 1.000
# Experimental: The K562 and U-251 cells were seeded in 3 cm Petri dishes (Nunc) at a density of 500,000 cells per well and incubated overnight. […] Next, the cell pellets were resuspended in an RIPA buffer containing a Halt Protease Inhibitor Cocktail and a Halt Phosphatase Inhibitor Cocktail along with 0.5 M EDTA (all from Thermo Scientific, Waltham, MA, USA) and lysed on ice for 20 min. Then, the obtained lysates were sonicated and centrifuged at 10,000 rpm for 10 min at 4 °C. The supernatants were collected for further analysis. The protein concentration was measured using a Micro BCA™ Protein Assay Kit (Thermo Scientific) according to the manufacturer’s instructions. Equal amounts of the proteins (16 μg) were electrophoresed on SDS-Page gels and transferred onto nitrocellulose membranes. The membranes were blocked in 5% non-fat milk prepared in TPBS (PBS containing 0.1% Tween-20) for 1 h. After blocking, the membranes were incubated with the specific primary antibodies (all from Cell Signaling) at a 1:1000 dilution—cyclin E, cdc2, PARP, AIF, BID, p53, p21^Waf1/Cip1, HIF-1α, cathepsin B and caspase-9—and at a 1:2000 dilution for the reference proteins—vinculin, β-actin and GAPDH—overnight at 4 °C. The next day, the membranes were washed in TPBS and incubated with horseradish peroxidase (HRP)-conjugated secondary antibodies for 1 h at room temperature. Lastly, the membranes were washed in TPBS and incubated with a SuperSignal™ West Pico Chemiluminescent Substrate (Thermo Scientific). The chemiluminescence signals were captured using a ChemiDoc™ XRS + System (Biorad). The experiments were performed at least four to five times. The densitometric analysis was conducted using ImageJ software (Wayne Rasband, National Institutes of Health, Bethesda, MD, USA).
# The band intensity of tested proteins (p53, cyclin E1, cdc2, p21, HIF-1α, cathepsin b, PARP, caspase-9, BID, AIF) were analyzed by densitometry readings/intensity ratio, using ImageJ software (NIH) and were normalized to the corresponding reference proteins (GAPDH, vinculin or β-actin) value.
# The densitometric readings/intensity ratio data from four/five independent experiments (compared to control): […]
# p53/ Refer- p21/ Refer- cdc2/ Refer- Cyclin E1/ HIF-1α/ Cathepsin b/Reference ence ence ence Reference Reference
# PARP/Reference BID/ Reference Caspase-9/Reference […]
# cdc2/ Reference cyclin E1/ Reference AIF/ Reference BID/ Reference
Compound,IC50 (HCT 116 p53^+/+ cells) [nM],"Selectivity index, HCT 116 p53+/+ (HCT 116 p53^+/+ cells)",IC50 (A549 cells) [µM],"Selectivity index, A549 (A549 cells)",IC50 (U-251 cells) [nM],"Selectivity index, U-251 (U-251 cells)",IC50 (PANC-1 cells) [nM],"Selectivity index, PANC-1 (PANC-1 cells)",Total (early and late) apoptotic cells (K562 cells [1]) [%],"PARP/Reference 89 kDa, densitometric intensity ratio (K562 cells [2]; K562, 0.35µM)","caspase-9/Reference 37-35 kDa, densitometric intensity ratio (K562 cells [2]; K562, 0.35µM)","AIF/Reference 67 kDa, densitometric intensity ratio (K562 cells [2]; K562, 0.35µM)","BID/Reference 22 kDa, densitometric intensity ratio (K562 cells [2]; K562, 0.35µM)","PARP/Reference 116 kDa, densitometric intensity ratio (K562 cells [2]; K562, 0.35µM)","caspase-9/Reference 47 kDa, densitometric intensity ratio (K562 cells [2]; K562, 0.35µM)","cdc2/Reference 34 kDa, densitometric intensity ratio (K562 cells [2]; K562, 0.35µM)","cyclin E1/Reference 48 kDa, densitometric intensity ratio (K562 cells [2]; K562, 0.35µM)","PARP/Reference 89 kDa, densitometric intensity ratio (K562 cells [2]; K562, 0.5µM)","caspase-9/Reference 37-35 kDa, densitometric intensity ratio (K562 cells [2]; K562, 0.5µM)","AIF/Reference 67 kDa, densitometric intensity ratio (K562 cells [2]; K562, 0.5µM)",further results
"COc1ccccc1/C=C/c1nc(OS(=O)(=O)c2ccc(C)cc2)c2ccccc2n1 [BS4, 2-((E)-2-(2-methoxyphenyl)ethenyl)quinazolin-4-yl 4-methylbenzenesulfonate]",1570 ± 357,15.95,11.3 ± 1.76,2.20,1910 ± 214,13.11,235 ± 42,106.38,26.51,–,–,–,–,–,–,–,–,–,–,–,–
"COc1ccccc1/C=C/c1nc(OS(=O)(=O)c2cc3c(cc2Br)OCO3)c2ccccc2n1 [BS2, 2-((E)-2-(2-methoxyphenyl)ethenyl)quinazolin-4-yl 6-bromo-1,3-benzodioxole-5-sulfonate]",1200 ± 132,13.06,> 25,1.00,2300 ± 234,6.80,2900 ± 622,5.39,–,0.494,1.268,4.141,0.965,1.556,1.108,1.338,1.640,0.811,1.113,4.160,"BID/Reference 22 kDa, densitometric intensity ratio (K562 cells [2]; K562, 0.5µM): 0.762; PARP/Reference 116 kDa, densitometric intensity ratio (K562 cells [2]; K562, 0.5µM): 1.665; caspase-9/Reference 47 kDa, densitometric intensity ratio (K562 cells [2]; K562, 0.5µM): 1.104; cdc2/Reference 34 kDa, densitometric intensity ratio (K562 cells [2]; K562, 0.5µM): 1.206; cyclin E1/Reference 48 kDa, densitometric intensity ratio (K562 cells [2]; K562, 0.5µM): 1.270"
"COc1ccccc1/C=C/c1nc(OS(=O)(=O)c2ccc3c(c2)OCO3)c2ccccc2n1 [BS1, 2-((E)-2-(2-methoxyphenyl)ethenyl)quinazolin-4-yl 1,3-benzodioxole-5-sulfonate]",880 ± 86,14.25,> 25,1.00,1900 ± 649,6.61,3980 ± 597,3.15,31.99,2.111,1.287,3.809,1.049,1.793,1.109,1.234,1.273,2.156,1.368,2.737,"Cleavage caspase-9 proteins (Western blot) (K562 cells [2]; K562, 0.35 µM): more than six-fold increase; BID/Reference 22 kDa, densitometric intensity ratio (K562 cells [2]; K562, 0.5µM): 0.695; PARP/Reference 116 kDa, densitometric intensity ratio (K562 cells [2]; K562, 0.5µM): 1.646; caspase-9/Reference 47 kDa, densitometric intensity ratio (K562 cells [2]; K562, 0.5µM): 1.627; cdc2/Reference 34 kDa, densitometric intensity ratio (K562 cells [2]; K562, 0.5µM): 1.122; cyclin E1/Reference 48 kDa, densitometric intensity ratio (K562 cells [2]; K562, 0.5µM): 1.110"
